ChEMBL document CHEMBL5725856, “Substituted N-bicyclo-2-aryl-quinolin-4-carboxamides and use thereof” (2018)

Target: Prostaglandin F2-alpha receptor (Homo sapiens, UniProt P43088)
Assay: In Vitro Test of Inhibition of Human FP Receptor Activity : For the characterization of test substances in respect of FP antagonism, PGF2α-induced calcium flux in FP-expressing CHEM1 cells (Millipore, HTS093C) was used.3000 cells in 25 μl of full medium [DMEM F12, 10% FCS, 1.35 mM sodium pyruvate, 20 mM HEPES, 4 mM GlutaMAX, 2% sodium bicarbonate, 1% Pen/Strep, 1% 100× non-essential amino acids] are sown per well of a 384 multititer plate (from Greiner, TC plate, black with clear base) and incubated at 37° C./5% CO2 for 24 hours. Prior to the measurement, the medium is replaced by 30 μl of Fluo-8 AM loading buffer [calcium-free Tyrode (130 mM NaCl, 5 mM KCl, 20 mM HEPES, 1 mM MgCl2, 4.8 mM NaHCO3, pH 7.4), 2 mM CaCl2, 1× SmartBlock (from CANDOR Bioscience GmbH), 4.5 mM Probenecid, 5 μM Fluo-8 AM, 0.016% Pluronic, 0.04% Brilliant black] and incubated at 37° C./5% CO2 for 30 minutes. The test substance is prepared in DMSO in various concentrations as a dose-response curve (starting concentration 10 mM, dilution factor 3.16) and prediluted 1:50 with calcium-free Tyrode/2 mM CaCl2. 10 μl of the prediluted substance solution are added to the Fluo-8-laden cells and incubated at 37° C./5% CO2 for 10 minutes. […]
Format: cell-based

Chain of Prostaglandin F2-alpha receptor (P43088 whole entry): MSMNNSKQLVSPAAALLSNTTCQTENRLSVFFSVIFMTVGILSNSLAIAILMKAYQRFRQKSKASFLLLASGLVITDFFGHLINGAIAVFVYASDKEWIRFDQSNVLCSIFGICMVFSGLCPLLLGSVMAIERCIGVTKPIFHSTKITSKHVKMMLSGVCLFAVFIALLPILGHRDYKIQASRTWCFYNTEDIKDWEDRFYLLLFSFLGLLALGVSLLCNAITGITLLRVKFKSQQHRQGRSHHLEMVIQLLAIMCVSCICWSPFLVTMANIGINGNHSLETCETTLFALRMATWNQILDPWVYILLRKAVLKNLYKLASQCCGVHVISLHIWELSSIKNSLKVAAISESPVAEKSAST

IC50: 456 nM
Compound: Cc1c(-c2ccccc2)nc2ccc(C(C)(C)C)cc2c1C(=O)NC12CCC(C(=O)O)(CC1)CC2
